Results on 33 compounds are retold here after US10800782B2, “Inhibitors of cellular metabolic processes” (Agios Pharmaceuticals, Inc., priority 2016, dated 2020).

The target of this assay is T1, MAT2A (Homo sapiens, UniProt P31153).
T1 construct: His6; made in house; host or cells: SF9 insect cells
T1 sequence (P31153 whole entry): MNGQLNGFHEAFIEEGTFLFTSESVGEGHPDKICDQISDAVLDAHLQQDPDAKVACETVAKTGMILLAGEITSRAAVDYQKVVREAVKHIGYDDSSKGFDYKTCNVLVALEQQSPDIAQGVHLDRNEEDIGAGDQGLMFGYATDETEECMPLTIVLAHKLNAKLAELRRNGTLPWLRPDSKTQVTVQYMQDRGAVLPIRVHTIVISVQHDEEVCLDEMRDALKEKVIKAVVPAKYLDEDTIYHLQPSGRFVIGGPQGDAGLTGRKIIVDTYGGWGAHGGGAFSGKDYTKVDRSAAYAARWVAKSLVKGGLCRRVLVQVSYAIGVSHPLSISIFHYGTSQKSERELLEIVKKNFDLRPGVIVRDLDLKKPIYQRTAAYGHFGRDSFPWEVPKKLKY
As to the kind of experiment: MAT2A biochemical assay (colorimetric inorganic phosphate detection, PiColorLock). Particulars: recombinant His6-tagged MAT2A 1 μg/ml; 60 minutes preincubation at 25° C.; L-Met 80 μM, ATP 100 μM; 60 minutes reaction; read at 623 nm; read-out: MAT2A Inhibition Score. In a few lines: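 Colorimetric malachite green readout of phosphate released when MAT2A turns over L-Met and ATP, after 60 min at room temperature. Enzyme: SF9-expressed His6-tagged MAT2A at 1 μg/ml. Buffer: Tris pH 8.0, 50 mM KCl, 15 mM MgCl2, 300 uM EDTA, 0.005% BSA. Compounds tested as ten-point three-fold dilutions.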
`O=c1c(-c2ccc3ncccc3c2)c(CO)[nH]c2c(-c3ccccc3)c(-c3ccccc3)nn12` [Compound 319, 5-(hydroxymethyl)-2,3-diphenyl-6-(quinolin-6-yl)pyrazolo[1,5-a]pyrimidin-7(4H)-one]: the IC50 is 100 to 1000 nM.

Consider `O=c1c(-c2ccc3ncccc3c2)c(Cn2cccn2)[nH]c2c(-c3ccccc3)c(-c3ccccc3)nn12` [Compound 320, 5-((1H-pyrazol-1-yl)methyl)-2,3-diphenyl-6-(quinolin-6-yl)pyrazolo[1,5-a]pyrimidin-7(4H)-one], for which the IC50 is 100 to 1000 nM.

Consider `O=c1c(-c2ccc3ncccc3c2)c(Cc2ncn[nH]2)[nH]c2c(-c3ccccc3)c(-c3ccccc3)nn12` [Compound 321, 5-((1H-1,2,4-triazol-5-yl)methyl)-2,3-diphenyl-6-(quinolin-6-yl)pyrazolo[1,5-a]pyrimidin-7(4H)-one], for which the IC50 was 100 to 1000 nM.

Regarding `O=C1CNC(=O)N1Cc1[nH]c2c(-c3ccccc3)c(-c3ccccc3)nn2c(=O)c1-c1ccc2ncccc2c1` [Compound 322, 3-((7-oxo-2,3-diphenyl-6-(quinolin-6-yl)-4,7-dihydropyrazolo[1,5-a]pyrimidin-5-yl)methyl)imidazolidine-2,4-dione], the IC50 is 1000 to 10000 nM.

For the compound `O=C1CN(Cc2[nH]c3c(-c4ccccc4)c(-c4ccccc4)nn3c(=O)c2-c2ccc3ncccc3c2)C(=O)N1` [Compound 323, 1-((7-oxo-2,3-diphenyl-6-(quinolin-6-yl)-4,7-dihydropyrazolo[1,5-a]pyrimidin-5-yl)methyl)imidazolidine-2,4-dione], the IC50 was in the range of 100 to 1000 nM.

As to `O=C1NCCN1Cc1[nH]c2c(-c3ccccc3)c(-c3ccccc3)nn2c(=O)c1-c1ccc2ncccc2c1` [Compound 324, 5-((2-oxoimidazolidin-1-yl)methyl)-2,3-diphenyl-6-(quinolin-6-yl)pyrazolo[1,5-a]pyrimidin-7(4H)-one], the IC50 was 1000 to 10000 nM.

Regarding `CNC(=O)c1[nH]c2c(-c3ccccc3)c(-c3ccccc3)nn2c(=O)c1-c1ccc2ncccc2c1` [Compound 325], the IC50 is 100 to 1000 nM.

Take `O=C(Nc1[nH]c2c(-c3ccccc3)c(-c3ccccc3)nn2c(=O)c1-c1ccc2ncccc2c1)C1CC1` [Compound 326, N-(7-oxo-2,3-diphenyl-6-(quinolin-6-yl)-4,7-dihydropyrazolo[1,5-a]pyrimidin-5-yl)cyclopropanecarboxamide]: the IC50 is 1000 to 10000 nM.

With `CCC(=O)Nc1[nH]c2c(-c3ccccc3)c(-c3ccccc3)nn2c(=O)c1-c1ccc2ncccc2c1` [Compound 327, N-(7-oxo-2,3-diphenyl-6-(quinolin-6-yl)-4,7-dihydropyrazolo[1,5-a]pyrimidin-5-yl)propionamide], the IC50 was 100 to 1000 nM.

On to `O=C(NCc1cc[nH]n1)c1[nH]c2c(-c3ccccc3)c(-c3ccccc3)nn2c(=O)c1-c1ccc2ncccc2c1` [Compound 328, N-((1H-pyrazol-3-yl)methyl)-7-oxo-2,3-diphenyl-6-(quinolin-6-yl)-4,7-dihydropyrazolo[1,5-a]pyrimidine-5-carboxamide], for which the IC50 was in the range of 1000 to 10000 nM.

As for `O=C(NCCO)c1[nH]c2c(-c3ccccc3)c(-c3ccccc3)nn2c(=O)c1-c1ccc2ncccc2c1` [Compound 329, N-(2-hydroxyethyl)-7-oxo-2,3-diphenyl-6-(quinolin-6-yl)-4,7-dihydropyrazolo[1,5-a]pyrimidine-5-carboxamide], the IC50 was 100 to 1000 nM.

For the compound `Cc1[nH]c2c(-c3ccccc3)c(-c3ccccc3)nn2c(=O)c1-c1ccc2ncnc(N)c2c1` [Compound 330, 6-(4-aminoquinazolin-6-yl)-5-methyl-2,3-diphenylpyrazolo[1,5-a]pyrimidin-7(4H)-one], the IC50 was in the range of 100 to 1000 nM.

Regarding `Cc1[nH]c2c(-c3ccccc3)c(-c3ccccc3)nn2c(=O)c1-c1ccc2nccnc2c1` [Compound 331, 5-methyl-2,3-diphenyl-6-(quinoxalin-6-yl)pyrazolo[1,5-a]pyrimidin-7(4H)-one], the IC50 fell in the range of 100 to 1000 nM.

Consider `COc1ccc(-c2c(C)[nH]c3c(-c4ccccc4)c(-c4ccccc4)nn3c2=O)cn1` [Compound 333, 6-(6-methoxypyridin-3-yl)-5-methyl-2,3-diphenylpyrazolo[1,5-a]pyrimidin-7(4H)-one], for which the IC50 is 100 to 1000 nM.

With `Cc1[nH]c2c(-c3ccccc3)c(-c3ccccc3)nn2c(=O)c1-c1ccc2occc2c1` [Compound 334, 6-(benzofuran-5-yl)-5-methyl-2,3-diphenylpyrazolo[1,5-a]pyrimidin-7(4H)-one], the IC50 was 100 to 1000 nM.

For the compound `Cc1[nH]c2c(-c3ccccc3)c(-c3ccccc3)nn2c(=O)c1-c1ccc2nnccc2c1` [Compound 335, 6-(cinnolin-6-yl)-5-methyl-2,3-diphenylpyrazolo[1,5-a]pyrimidin-7(4H)-one], the IC50 fell in the range of 100 to 1000 nM.

`Cc1[nH]c2c(-c3ccccc3)c(-c3ccccc3)nn2c(=O)c1C1=CCC(=O)CC1` [Compound 336, 5-methyl-6-(4-oxocyclohex-1-en-1-yl)-2,3-diphenylpyrazolo[1,5-a]pyrimidin-7(4H)-one]: the IC50 is 100 to 1000 nM.

Consider `Cc1[nH]c2c(-c3ccccc3)c(-c3ccccc3)nn2c(=O)c1C1=CCC(O)CC1` (stereo not drawn) [Compound 337, 6-(4-hydroxycyclohex-1-en-1-yl)-5-methyl-2,3-diphenylpyrazolo[1,5-a]pyrimidin-7(4H)-one], for which the IC50 is 100 to 1000 nM.

Turning to `COc1ccc(-c2c(Cn3cnnn3)[nH]c3c(-c4ccccc4)c(-c4ccccc4)nn3c2=O)cc1` [Compound 338, 5-((1H-tetrazol-1-yl)methyl)-6-(4-methoxyphenyl)-2,3-diphenylpyrazolo[1,5-a]pyrimidin-7(4H)-one], the IC50 fell in the range of 100 to 1000 nM.

On to `COc1ccc(-c2c(Cn3ncnn3)[nH]c3c(-c4ccccc4)c(-c4ccccc4)nn3c2=O)cc1` [Compound 339, 5-((2H-tetrazol-2-yl)methyl)-6-(4-methoxyphenyl)-2,3-diphenylpyrazolo[1,5-a]pyrimidin-7(4H)-one], for which the IC50 lay within 100 to 1000 nM.

For the compound `COc1ccc(-c2c(CNC(=O)[C@@H](N)C(C)C)[nH]c3c(-c4ccccc4)c(-c4ccccc4)nn3c2=O)cc1` [Compound 340, (S)-2-amino-N-((6-(4-methoxyphenyl)-7-oxo-2,3-diphenyl-4,7-dihydropyrazolo[1,5-a]pyrimidin-5-yl)methyl)-3-methylbutanamide], the IC50 was in the range of 100 to 1000 nM.

Consider `Cc1[nH]c2c(-c3ccccc3)c(-c3cccc(Cl)c3)nn2c(=O)c1-c1ccc2ncccc2c1` [Compound 346, 2-(3-chlorophenyl)-5-methyl-3-phenyl-6-(quinolin-6-yl)pyrazolo[1,5-a]pyrimidin-7(4H)-one], for which the IC50 lay in the range of 1000 to 10000 nM.

With `Cc1[nH]c2c(-c3ccccc3)c(-c3ccc(Cl)cc3)nn2c(=O)c1-c1ccc2ncccc2c1` [Compound 347, 2-(4-chlorophenyl)-5-methyl-3-phenyl-6-(quinolin-6-yl)pyrazolo[1,5-a]pyrimidin-7(4H)-one], the IC50 was in the range of 1000 to 10000 nM.

`Cc1[nH]c2c(-c3ccccc3)c(-c3ccncc3)nn2c(=O)c1-c1ccc2ncccc2c1` [Compound 348, 5-methyl-3-phenyl-2-(pyridin-4-yl)-6-(quinolin-6-yl)pyrazolo[1,5-a]pyrimidin-7(4H)-one]: the IC50 was 1000 to 10000 nM.

For the compound `COc1ccc(-c2nn3c(=O)c(-c4ccc5ncccc5c4)c(C)[nH]c3c2-c2ccccc2)cn1` [Compound 349, 2-(6-methoxypyridin-3-yl)-5-methyl-3-phenyl-6-(quinolin-6-yl)pyrazolo[1,5-a]pyrimidin-7(4H)-one], the IC50 is 1000 to 10000 nM.

Turning to `Cc1[nH]c2c(-c3ccccc3)c(-c3ccnc(Cl)c3)nn2c(=O)c1-c1ccc2ncccc2c1` [Compound 350, 2-(2-chloropyridin-4-yl)-5-methyl-3-phenyl-6-(quinolin-6-yl)pyrazolo[1,5-a]pyrimidin-7(4H)-one], the IC50 lay within 1000 to 10000 nM.

Consider `COc1cc(-c2nn3c(=O)c(-c4ccc5ncccc5c4)c(C)[nH]c3c2-c2ccccc2)ccn1` [Compound 351, 2-(2-methoxypyridin-4-yl)-5-methyl-3-phenyl-6-(quinolin-6-yl)pyrazolo[1,5-a]pyrimidin-7(4H)-one], for which the IC50 was in the range of 1000 to 10000 nM.

Turning to `O=c1c(-c2ccc3ncccc3c2)cn(CCn2cnnn2)c2c(-c3ccccc3)c(-c3ccccc3)nn12` [Compound 352, 4-(2-(1H-tetrazol-1-yl)ethyl)-2,3-diphenyl-6-(quinolin-6-yl)pyrazolo[1,5-a]pyrimidin-7(4H)-one], the IC50 is 1000 to 10000 nM.

`NCCn1cc(-c2ccc3ncccc3c2)c(=O)n2nc(-c3ccccc3)c(-c3ccccc3)c12` [Compound 353, 4-(2-aminoethyl)-2,3-diphenyl-6-(quinolin-6-yl)pyrazolo[1,5-a]pyrimidin-7(4H)-one]: the IC50 was 1000 to 10000 nM.

As for `COc1ccc(-c2c(Oc3cccnn3)[nH]c3c(-c4ccccc4)c(-c4ccccc4)nn3c2=O)cc1` [Compound 354, 6-(4-methoxyphenyl)-2,3-diphenyl-5-(pyridazin-3-yloxy)pyrazolo[1,5-a]pyrimidin-7(4H)-one], the IC50 lay in the range of 1000 to 10000 nM.

Consider `COc1ccc(-c2c(Oc3ccccc3)[nH]c3c(-c4ccccc4)c(-c4ccccc4)nn3c2=O)cc1` [Compound 355, 6-(4-methoxyphenyl)-5-phenoxy-2,3-diphenylpyrazolo[1,5-a]pyrimidin-7(4H)-one], for which the IC50 was 1000 to 10000 nM.

Turning to `COc1ccc(-c2c(Nc3ccccc3)[nH]c3c(-c4ccccc4)c(-c4ccccc4)nn3c2=O)cc1` [Compound 356, 6-(4-methoxyphenyl)-2,3-diphenyl-5-(phenylamino)pyrazolo[1,5-a]pyrimidin-7(4H)-one], the IC50 lay in the range of 100 to 1000 nM.

Turning to `COc1ccc(-c2c(C)[nH]c3c(N4CCCCC4)c(-c4ccccc4)nn3c2=O)cn1` [Compound 358, 6-(6-methoxypyridin-3-yl)-5-methyl-2-phenyl-3-(piperidin-1-yl)pyrazolo[1,5-a]pyrimidin-7(4H)-one], the IC50 is < 100 nM.
